Data set [1] is described as follows: Solubility of TBIs in common solvents. It is filed as physicochemical.
For data set [2] the following is noted: imidazole reagent, literature refs 58-60, cited from earlier work.
Setting [3] is: organic solvent or mixture, solvent Ethanol, read-out: Solubility in Ethanol.
[4] abbreviates: solvent DI Water, read-out: Solubility in DI Water.

Read-outs that look alike come from different tables or passages of the source.

The term solubility denotes the dissolved amount per volume that the medium holds. As to `CC(C)c1nccn1C(=O)c1ccc(C(=O)n2ccnc2C(C)C)cc1` [5b], the solubility in data set [1] (setting [3]) and in data set [1] (setting [4]) was < 1000 µg/mL each time. The term pKa denotes the pH at which an ionisable group is half protonated. Turning to `Cc1nc(C)c(C)[nH]1` [6a, 2,4,5-Trimethyl imidazole], the pKa in data set [2] is reported as 8.92. With `CCc1nc(C)c[nH]1` [7a, 2-Ethyl-4-methyl imidazole], in data set [2], the pKa was 8.68. For `CCc1nccn1C(=O)c1ccc(C(=O)n2ccnc2CC)cc1` [3b], the solubility in data set [1] (setting [3]) and in data set [1] (setting [4]) was > 1000 µg/mL each time. `CC(C)c1ncc[nH]1` [5a, 2-Isopropyl imidazole]: the pKa in data set [2] was 7.97. For `CCc1ncc[nH]1` [3a, 2-Ethyl imidazole], the pKa in data set [2] is reported as 7.99-8. As for `Cc1ncc[nH]1` [2a, 2-Methyl imidazole], the pKa in data set [2] is listed as 7.85-8.10; in data set [2] (listed as 2-methylimidazole) it was 8.1. As for `CCc1nc(C)cn1C(=O)c1ccc(C(=O)n2cc(C)nc2CC)cc1` [7b], the solubility in data set [1] (setting [3]) is < 1000 µg/mL; in data set [1] (setting [4]), > 1000 µg/mL. Take Imidazole [1a]: in data set [2], the pKa is ~7. With `Cc1cn(C(=O)c2ccc(C(=O)n3cnc(C)c3)cc2)cn1` [4b], the solubility in data set [1] (setting [3]) and in data set [1] (setting [4]) was > 1000 µg/mL each time. As for `Cc1nc(C)n(C(=O)c2ccc(C(=O)n3c(C)nc(C)c3C)cc2)c1C` [6b], the solubility in data set [1] (setting [3]) and in data set [1] (setting [4]) was > 1000 µg/mL each time. Regarding `O=C(c1ccc(C(=O)n2ccnc2-c2ccccc2)cc1)n1ccnc1-c1ccccc1` [8b], the “Solubility in typical aromatic organic solvents” value in data set [1] (e.g., toluene, xylene) is reported as “moderately soluble”. The solubility in data set [1] (setting [3]) and in data set [1] (setting [4]) was < 1000 µg/mL each time. For `c1ccc(-c2ncc[nH]2)cc1` [8a, 2-Phenyl imidazole], in data set [2], the pKa is on record as 6.44. Take `Cc1nccn1C(=O)c1ccc(C(=O)n2ccnc2C)cc1` [2b]: the solubility in data set [1] (setting [3]) and in data set [1] (setting [4]) was > 1000 µg/mL in each case. On to `Cc1c[nH]cn1` [4a, 4-Methyl imidazole], for which, in data set [2], the pKa is 7.69-7.80.

As to `O=C(c1ccc(C(=O)n2ccnc2)cc1)n1ccnc1` [1b, 1,1′-(1,4-Phenylene)bis[1-(1H-imidazol-1-yl)methanone]], in data set [1] (DI H2O), the “Solubility on contact with H2O” value is “solubilize”. In addition, the solubility in data set [1] (setting [3]) and in data set [1] (setting [4]) was > 1000 µg/mL in each case.

The record behind these values is patent publication US20250075056A1, “IMIDAZOLYSIS OF POLYESTERS AND POLYURETHANES” (The Board of Trustees of The University of Alabama, priority 2023, published 2025).
